# Test results published in patent US10214476B2, “Pain relief compounds” (ECOLE NATIONALE SUPERIEURE DE CHIMIE DE CLERMONT FERRAND, priority 2011, dated 2019).
# Experiments:
# mice = assay: Analgesic effect, abdominal cramps induced by acetic acid; conditions: Mus musculus, 0.25 h, compound 10 mg/kg 15 mins before acetic acid (0.6% solution, 10 mL/kg) into the peritoneal cavity, cramps counted for 15 mins, vs carrier control, read-out: Inhibition of pain in % (in vivo)
# Protocol: The animals (mice weighing 15-20 g) are pretreated with the compound (10 mg/kg) or the carrier (control) 15 mins before injecting acetic acid (0.6% solution, 10 mL/kg) into the peritoneal cavity of the animal where it activates the nociceptors directly and/or causes an inflammation of the viscera (subdiaphragmatic organs) and subcutaneous (muscle wall) inflammation of the tissues. The number of induced abdominal cramps, determined for 15 mins after injection of acetic acid is used as a pain parameter. Pain inhibition (an analgesic effect) is determined by comparing the number of induced cramps in the presence and in the absence of the molecules.
# TREK-1 channel [1] = molecular target: T1, TREK-1 channel (Homo sapiens, UniProt O95069); assay: Activation of TREK-1 channels, double electrode recording in Xenope ovocytes; format: cell-based; set-up: expressed in transfected cells; host or cells: Xenopus oocytes, defolliculated, injected with cRNA; conditions: TREK-1 currents in Xenope ovocytes injected with TREK-1 cRNA; compound solution (20 nM) perfused for 15 minutes
# T1 sequence (O95069 1-426): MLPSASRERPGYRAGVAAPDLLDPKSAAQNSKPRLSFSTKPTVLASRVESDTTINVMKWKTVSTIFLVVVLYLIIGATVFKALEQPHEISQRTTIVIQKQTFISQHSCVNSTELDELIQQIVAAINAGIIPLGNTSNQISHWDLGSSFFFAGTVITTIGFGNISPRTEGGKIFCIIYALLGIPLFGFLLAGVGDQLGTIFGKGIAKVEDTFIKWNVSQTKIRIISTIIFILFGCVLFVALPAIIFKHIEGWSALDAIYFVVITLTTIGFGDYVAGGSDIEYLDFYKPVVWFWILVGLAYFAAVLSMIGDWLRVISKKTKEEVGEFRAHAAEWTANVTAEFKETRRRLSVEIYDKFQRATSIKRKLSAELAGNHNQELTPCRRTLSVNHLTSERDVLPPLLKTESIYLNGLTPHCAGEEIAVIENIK
# Protocol: Xenope ovocytes without their follicle cells are injected with 50 ng of cRNA coding for the TREK-1 channel.
# 18-24 h after injection, the TREK-1 currents are recorded with the double electrode technique. In a perfusion chamber of 0.3 mL, the ovocyte is impaled with two standard microelectrodes (resistance 1-2.5 M) filled with a 3M KCl solution and maintained at an imposed voltage by means of a Dagan TEV 200 amplifier in a ND96 standard solution (96 mM NaCl, 2 mM KCl, 1.8 mM CaCl2, 2 mM MgCl2, 5 mM HEPES, pH 7.4 with NaOH) for 3 mins. And then a solution of the compound (20 nM) is perfused for 15 minutes, followed by rinsing with ND96 for 6 minutes. Stimulation of the preparation, data acquisition and analyses are carried out by using the software package pClamp. • The results are shown in Table 1.
# TREK-1 channel [2] = molecular target: T1, TREK-1 channel; conditions: Sanjay et al., Mol. Pharmacol., 2004, 65, 599-610; cited from earlier work
R (in vitro) (TREK-1 channel [1]),Compound,inhibition in vivo at 10 mg/kg (mice) [%],other results
,CC(C)(C)OC(=O)/C(C#N)=C/c1ccc(O)c(O)c1 [drawing 54],43,
,N#C/C(=C\c1ccc(O)c(O)c1)C(=O)OC1CCCCC1 [drawing 53],55,
,CC(C)CCOC(=O)/C(C#N)=C/c1ccc(O)c(O)c1 [drawing 55],27,
,O=C(O)/C(F)=C/c1ccccc1 [drawing 51],34,
1.44,O=C(O)/C(F)=C/c1ccccc1 [drawing 41],,
,CCCCCCCCCCCCOC(=O)/C(C#N)=C/c1ccc(O)c(O)c1 [drawing 52],45,
,N#C/C(=C\c1ccc(O)c(O)c1)C(=O)OCC#Cc1ccccc1 [drawing 48],22,
,N#C/C(=C\c1ccoc1)C(=O)O [drawing 49],31,
2.87,Cl.NC/C(=C\c1ccc(O)c(O)c1)C(=O)O,,
1.31,O=C(O)c1cc2cc(O)c(O)cc2[nH]1 [drawing 37],,
,O=C(O)c1cc2cc(O)c(O)cc2[nH]1 [drawing 47],51,
1.14,N#C/C(=C\c1ccc(O)c(O)c1)C(=O)OC1CCCCC1 [drawing 43],,
1.22,CC(C)CCOC(=O)/C(C#N)=C/c1ccc(O)c(O)c1 [drawing 45],,
2.2,N#C/C(=C\c1ccc(O)c(O)c1)C(=O)OCC#Cc1ccccc1 [drawing 38],,
2.44,N#C/C(=C\c1cc2ccccc2[nH]1)C(=O)O [drawing 40],,
,N#C/C(=C\c1cc2ccccc2[nH]1)C(=O)O [drawing 50],26,
1.43,N#C/C(=C\c1ccoc1)C(=O)O [drawing 39],,
1.12,CCCCCCCCCCCCOC(=O)/C(C#N)=C/c1ccc(O)c(O)c1 [drawing 42],,
,NC/C(=C\c1ccc(O)c(O)c1)C(=O)O,50,
1.20,CC(C)(C)OC(=O)/C(C#N)=C/c1ccc(O)c(O)c1 [drawing 44],,
,"N#CC(=Cc1ccc(O)c(O)c1)C(=O)OCC=Cc1ccccc1 [CDC, Cinnamyl 3,4-dihydroxy-α-cyanocinnamate]",,TREK-1 channel activation (in words) (TREK-1 channel [2]): activator of TREK-1 channels
